According to patent US20250282742A1, “BENZOFURAN DERIVATIVES FOR TARGETING AUTOPHAGY” (Automera PTE. LTD, priority 2024, published 2025):

Key:
Recombinant p62 protein = biological target: T1, Recombinant p62 protein (Homo sapiens, UniProt Q13501); test: Surface plasmon resonance (SPR) compound binding to immobilised p62; conditions: recombinant p62, 15° C
T1 construct: Recombinant p62 protein was buffer exchanged into Biacore SPR running buffer
Method: Example 28: Surface Plasmon Resonance (SPR) Analysis
Recombinant p62 protein was buffer exchanged into Biacore SPR running buffer (Cytiva 100671) using the Slide-A-Lyzer Mini Dialysis system 7K MWCO (Thermo Fisher Scientific, Cat no. 69560). The final protein concentration was determined using the Nanodrop One spectrophotometer (Thermo Fisher Scientific, cat no. ND-ONE-W), with calibration for the dialysis buffer.
The prepared protein was diluted in sodium acetate buffer (NaAc, pH 5.5, Cytiva) to concentrations ranging from approximately 0.25-40 μg/mL. Post-immobilization, the protein required approximately 16 hours of equilibration in running buffer supplemented with 1% DMSO at 15° C. to ensure adequate surface equilibration and protein reorganization.
All SPR experiments were conducted at a constant temperature of 15° C. The SPR chip surface was activated using EDC/NHS for a contact time of 6-10 min at a flow rate of 10 μL/min. This was followed by protein immobilization for 2100 seconds and ethanolamine capping for 420 seconds, both at the same flow rate. Immediately after immobilization, the NH2—REEE peptide was analyzed in Single Cycle Kinetics mode (SCK) to verify surface activity, ensuring it binds the sample with the published affinity (−20 μM by SPR).
For general compound binding studies, experiments were performed at 15° C. using a running buffer composed of 10 mM HEPES, 150 mM NaCl, 1 mM DTT, 0.05% Tween 20, and 1% DMSO at pH 7.4. The test compound was initially prepared at a 20 mM concentration in DMSO and subsequently titrated in 2-fold dilutions. For each assay, 2 μL of the compound was mixed with 198 μL of the running buffer, and the mixture was thoroughly pipetted approximately 15 times for homogenization.
A series of blank injections (0 μM concentration) were included for double referencing, with at least 8 or 16 per plate depending on the format. Typical injection parameters were 120 seconds for association and 180 seconds for dissociation at a flow rate of […]. A four-point solvent correction was prepared with DMSO concentrations ranging from 2% to 0.5% in the buffer. Post each compound injection, the system's needles were washed with 50% DMSO.
Analysis of the SPR data was conducted using the Cytiva Evaluation software. The binding levels at the late time-point of each interaction were corrected for reference, then normalized to percentage bound values to account for variations in immobilization levels, protein molecular weight, and compound molecular weight.
Compound binding studies were carried out according to experimental procedures above and SPR % occupancy was determined and summarized in Table 7.

p62 puncta in HeLa cells = test: p62 puncta assay (immunocytochemistry and imaging, EVOS M7000 or Operetta CLS); assay type: cell-based; conditions: Homo sapiens, fold change in p62 puncta levels relative to DMSO control, 24 hr
Method: HeLa cells were seeded in coated 96-well plates (10,000 cells) and allowed to adhere overnight. After 24 hours of treatment with either vehicle (DMSO) or test compounds, the media was discarded, and cells were rinsed with ice-cold 1×PBS before fixation by 4% formaldehyde or paraformaldehyde for 20 min. Cells were then washed with 1×PBS and permeabilized with 0.1% Triton X-100 in PBS for 20 min and blocked with Blocking Buffer in PBS for 1 hour. The cells were incubated thereafter for 1 hour with anti-p62 primary antibody in Blocking Buffer, followed by incubation with secondary antibody for 1 hour. DAPI dye was used to visualize nuclei of fixed cells. The blocking buffer used were 5% Fetal Bovine Serum (FBS, ThermoFIsher Scientific, 10270106) and Li-cor Intercept (PBS) Blocking Buffer (Li-cor, 927-70001). The primary antibody used was mouse anti-p62 primary antibody (Novus Biologicals, H00008878-MO1). The secondary antibodies used were goat anti-mouse Alexa Fluor Plus 488 secondary antibody (Invitrogen, GOXMS) and goat anti-mouse Alexa Fluor 488 secondary antibody (Invitrogen, A-11029). The DAPI dyes used were DAPI dye (Invitrogen, 62248) and DAPI dye (Invitrogen, D1306).
For the EVOS M7000 System, cells were imaged on the EVOS M7000 microscope using a 20× air objective (Nikon, N.A 0.45). DAPI and p62 channels were illuminated with LED light cubes using integrated hard-coated filter sets for DAPI (357/447 nm) and GFP (470/525 nm) respectively. Images were analysed for p62 puncta count on the Celeste 6.0 software.
For the Operetta CLS System, cells were imaged on the Operetta CLS using a 63× water objective on the DAPI and Alexa 488 channels. Images were analysed for p62 puncta count on the Harmony 5.1 software.
HeLa cells were treated with compounds for 24 hours to evaluate the effect of these compounds on p62 puncta activity. The resulting changes in levels of p62 puncta were assessed by imaging, either on the EVOS M7000 or Operetta CLS systems as described in experimental procedures. The fold change of p62 puncta levels induced by compound treatment relative to vehicle control (DMSO) was determined and summarized in Table 10.

T1 sequence (Q13501 whole entry, species assumed): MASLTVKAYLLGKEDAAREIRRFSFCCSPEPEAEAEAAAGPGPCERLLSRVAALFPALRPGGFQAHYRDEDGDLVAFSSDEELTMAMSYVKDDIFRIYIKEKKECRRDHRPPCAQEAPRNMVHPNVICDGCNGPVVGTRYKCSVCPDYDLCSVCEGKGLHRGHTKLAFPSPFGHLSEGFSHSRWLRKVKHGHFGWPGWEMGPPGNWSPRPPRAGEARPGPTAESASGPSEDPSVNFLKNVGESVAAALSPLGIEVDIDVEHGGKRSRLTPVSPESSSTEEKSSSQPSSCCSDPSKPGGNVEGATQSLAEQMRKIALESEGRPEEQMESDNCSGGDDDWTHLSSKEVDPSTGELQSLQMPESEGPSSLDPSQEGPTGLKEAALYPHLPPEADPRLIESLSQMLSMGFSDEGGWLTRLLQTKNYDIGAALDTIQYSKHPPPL

| SMILES | receptor occupancy at 100 µM (Recombinant p62 protein) [%] | fold induction at 5 µM (p62 puncta in HeLa cells) |
| --- | --- | --- |
| OCCNCc1ccc2cc(CN3CCCC(O)C3)oc2c1 (stereo not shown) [compound 28] | < 30 |  |
| OCCNCc1ccc2nc(Cc3ccccc3)sc2c1 [compound 48, 2-(((2-benzylbenzo[d]thiazol-6-yl)methyl)amino)ethan-1-ol] | 30 to 70 |  |
| OCCNCc1ccc2cc(Cc3ccccc3)oc2c1F [Compound 38, 2-(((2-benzyl-7-fluorobenzofuran-6-yl)methyl)amino)ethan-1-ol] | 30 to 70 |  |
| O=C(NCCO)c1ccc2cc(CCc3ccc(F)cc3)oc2c1 [compound 50, 2-(4-fluorophenethyl)-N-(2-hydroxyethyl)benzofuran-6-carboxamide] | < 30 |  |
| CN(C)C(=O)Cc1cc2ccc(CNCCO)cc2o1 [Compound 29, 2-(6-(((2-hydroxyethyl)amino)methyl)benzofuran-2-yl)-N,N-dimethylacetamide] | < 30 |  |
| OCCNCc1cccc2oc(Cc3ccccc3)cc12 [compound 4] | 30 to 70 |  |
| O=C(c1cc2ccc(CNCCO)cc2o1)N1CCCCC1 [Compound 34, (6-(((2-hydroxyethyl)amino)methyl)benzofuran-2-yl)(piperidin-1-yl)methanone] | < 30 |  |
| OCCNCc1ccc2cc(Cc3c[nH]cn3)oc2c1 [compound 23] | < 30 |  |
| C#CCCCCCCCCOCCNCc1ccc2cc(CCc3ccc(F)cc3)oc2c1 [compound 161] |  | > 2 |
| CC(C)NCCOCc1ccc2cc(CCc3ccc(F)cc3)oc2c1 [compound 79] |  | > 2 |
| CC(C)(C)OC(=O)N[C@H]1CC[C@H](COCCNCc2ccc3cc(CCc4ccc(F)cc4)oc3c2)CC1 [compound 168] |  | > 2 |
| CO[C@@H]1CCCN(Cc2ccc3cc(-c4ccccc4)oc3c2)C1 [compound 109] |  | < 2 |
| CC(C)(C)OC(=O)NC1(COCCNCc2ccc3cc(CCc4ccc(F)cc4)oc3c2)CC1 [compound 156] |  | > 2 |
| CC(C)(C)OC(=O)N1CCC(COCCOCCNCc2ccc3cc(CCc4ccc(F)cc4)oc3c2)CC1 [compound 165] |  | > 2 |
| CC(C)(C)OC(=O)NC[C@H]1CC[C@H](COCCNCc2ccc3cc(CCc4ccc(F)cc4)oc3c2)CC1 [compound 167] |  | > 2 |

Now from value to compound, other results behind:

| receptor occupancy at 100 µM (Recombinant p62 protein) [%] | SMILES | fold induction at 5 µM (p62 puncta in HeLa cells) |
| --- | --- | --- |
| 30 to 70 | OCCNCc1cc2oc(Cc3ccccc3)cc2cc1F [Compound 36, 2-(((2-benzyl-5-fluorobenzofuran-6-yl)methyl)amino)ethan-1-ol] |  |
| < 30 | OCCNCc1ccc2nc(Cc3ccccc3)oc2c1 [compound 47, 2-(((2-benzylbenzo[d]oxazol-6-yl)methyl)amino)ethan-1-ol] |  |
| 30 to 70 | OCCNCc1ccc2oc(Cc3ccccc3)cc2c1 [compound 45] | < 2 |
| < 30 | O=C(CCO)Nc1ccc2cc(Cc3ccccc3)oc2c1 [Compound 11, N-(2-benzylbenzofuran-6-yl)-3-hydroxypropanamide] |  |
| < 30 | OCCNCc1ccc2cc(CNC3CCOCC3)oc2c1 [compound 32] |  |
| 30 to 70 | O=S(=O)(c1ccccc1)c1cc2ccc(CNCCO)cc2o1 [Compound 18, 2-(((2-(phenylsulfonyl)benzofuran-6-yl)methyl)amino)ethan-1-ol] |  |
| 30 to 70 | O=S(=O)(Nc1ccccc1)c1cc2ccc(CNCCO)cc2o1 [Compound 19, 6-(((2-hydroxyethyl)amino)methyl)-N-phenylbenzofuran-2-sulfonamide] |  |
| 30 to 70 | OCCNCc1ccc2cc(Cc3ccncc3)oc2c1 [Compound 16, 2-(((2-(pyridin-4-ylmethyl)benzofuran-6-yl)methyl)amino)ethan-1-ol] |  |
| < 30 | O=C(NCCO)c1ccc2cc(Cc3ccccc3)oc2c1 [Compound 6, 2-benzyl-N-(2-hydroxyethyl)benzofuran-6-carboxamide] |  |
